Measured values taken from patent US20140179681A1, “METHODS AND COMPOSITIONS OF TARGETED DRUG DEVELOPMENT” (priority 2010, published 2014).
Like-named read-outs stand apart in the source and are kept apart here.

Experiments:
[1] = test system: epithelial carcinoma A431 cell line; experiment: MTT Cell Proliferation Assay, A431 cells; type: cell-based; conditions: for IC50: Homo sapiens; for MTT Assay IC50(A431/MDBK): ratio in parentheses: ratio MDBK IC50 / A431 IC50 (selectivity); for MTT Follow-up: ratio in parentheses: ratio MDBK/A431
Method in brief: (§1)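 Each concentration ran in quadruplicate across duplicate plates, with compounds serially diluted in DMSO and delivered at 0.5% DMSO in 0.5% FBS medium for 3 days.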

[2] = biological target: T1, EGFR (Homo sapiens, UniProt P00533); experiment: EGFR in-cell Western (ICW) screening protocol (EGFR inhibition assay); type: cell-based; design: ICW 1 / ICW 2 / ICW Avg: unit not given here; conditions: ICW assay; for ICW Avg: average of runs 1 and 2; for ICW 1: run 1; for ICW 2: run 2
T1 construct: host or cells: A431
T1 sequence (P00533 25-1210): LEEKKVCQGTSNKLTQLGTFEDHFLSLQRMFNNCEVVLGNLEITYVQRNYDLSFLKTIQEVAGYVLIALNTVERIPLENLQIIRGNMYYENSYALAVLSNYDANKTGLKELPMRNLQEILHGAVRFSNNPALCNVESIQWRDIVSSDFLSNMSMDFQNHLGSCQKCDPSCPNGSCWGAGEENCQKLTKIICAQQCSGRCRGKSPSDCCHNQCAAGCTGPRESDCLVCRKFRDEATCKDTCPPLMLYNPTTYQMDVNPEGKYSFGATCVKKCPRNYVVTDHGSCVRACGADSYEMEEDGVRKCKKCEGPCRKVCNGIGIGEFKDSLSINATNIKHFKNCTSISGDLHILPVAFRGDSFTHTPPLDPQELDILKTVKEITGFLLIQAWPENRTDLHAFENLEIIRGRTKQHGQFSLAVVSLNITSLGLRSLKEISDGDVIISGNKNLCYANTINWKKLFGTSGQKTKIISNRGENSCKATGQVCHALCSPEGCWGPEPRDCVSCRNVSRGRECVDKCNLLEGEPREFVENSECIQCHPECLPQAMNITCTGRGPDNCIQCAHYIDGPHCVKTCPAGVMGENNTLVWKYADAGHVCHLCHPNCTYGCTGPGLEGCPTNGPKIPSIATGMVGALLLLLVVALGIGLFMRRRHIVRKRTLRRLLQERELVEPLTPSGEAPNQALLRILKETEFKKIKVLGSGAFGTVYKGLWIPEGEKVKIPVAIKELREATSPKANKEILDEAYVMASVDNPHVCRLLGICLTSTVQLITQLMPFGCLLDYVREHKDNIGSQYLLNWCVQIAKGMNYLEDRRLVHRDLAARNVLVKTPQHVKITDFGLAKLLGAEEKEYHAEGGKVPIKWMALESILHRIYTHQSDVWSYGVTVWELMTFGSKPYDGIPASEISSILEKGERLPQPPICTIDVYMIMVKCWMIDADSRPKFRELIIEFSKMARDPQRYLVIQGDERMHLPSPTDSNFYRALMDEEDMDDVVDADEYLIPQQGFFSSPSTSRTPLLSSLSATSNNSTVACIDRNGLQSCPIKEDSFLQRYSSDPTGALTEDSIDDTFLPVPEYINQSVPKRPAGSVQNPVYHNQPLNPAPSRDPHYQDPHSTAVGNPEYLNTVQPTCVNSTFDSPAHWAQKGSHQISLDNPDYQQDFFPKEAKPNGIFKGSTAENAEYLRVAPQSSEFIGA
Method in brief: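 In-cell Western read-out: fixed A431 cells were co-stained for total EGFR and phospho-EGFR (Tyr1173; some runs Tyr1045). Before fixation, cells were serum-starved for 2 h, exposed to compound for 4 h, then given EGF for 10 min, usually at 10 ng/ml final (6.6 or 12.5 ng/ml in some runs).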

[3] = test system: MDBK line; experiment: MTT Cell Proliferation Assay, MDBK cells; type: cell-based, bovine; conditions: Bos taurus, MDBK, MDBK cells
Method in brief: as §1

[4] = A-431, A431 cells, first value of cell, read-out: MTT Assay IC50(A431/MDBK): A431
[5] = second value of cell, read-out: MTT Assay IC50(A431/MDBK): MDBK
[6] = A-431, follow-up MTT, A431 cells, first value, read-out: MTT Follow-up: A431
[7] = follow-up MTT, second value, read-out: MTT Follow-up: MDBK

SMILES	IC50 [1, 4]	ICW Avg [2]	ICW 1 [2]	ICW 2 [2]	IC50 [3, 5]	MTT Assay IC50(A431/MDBK): ratio in parentheses [1]	IC50 [1, 6]	MTT Follow-up: ratio in parentheses [1]	IC50 [3, 7]
CCOc1ccc2nc(Nc3nc(=O)c(Cc4ccc(C)cc4)c(C)[nH]3)nc(C)c2c1 [compound 11442]	15.6 µM	37.95	50.14	25.76	118 µM				
COc1ccc2nc(Nc3nc(CSc4nnnn4-c4ccccc4)cc(=O)[nH]3)nc(C)c2c1 [compound 11448]	3.45 µM	43.72	50.06	37.38	11.8 µM	3.27			
FC(F)(F)c1cc(C(F)(F)F)nc(Nc2nc(-c3ccccc3)c3cc(Cl)ccc3n2)n1 [compound 11449]	6.41 µM	37.11	48.00	26.22	5.4 µM	0.84			
Cc1ccc2nc(Nc3nc(CSc4nnc(C)s4)cc(=O)[nH]3)nc(C)c2c1 [compound 11450]	6.98 µM	50.68	53.35	48.02	6.83 µM				
Cc1ccnc(Nc2nc(-c3ccccc3)c3cc(Cl)ccc3n2)n1 [compound 11455]	10.8 µM	37.35	48.80	25.90	23.4 µM	2.16			
COc1ccc2nc(Nc3nc(C)c(CCC(C)C)c(=O)[nH]3)nc(C)c2c1 [compound 11456]	5.84 µM	35.54	33.74	37.33	5.48 µM	0.94			
Cc1cc(C(F)(F)F)nc(Nc2nc(C)c3ccccc3n2)n1 [compound 11457]	27.4 µM	28.58	38.67	18.48	49 µM	1.79			
CCc1ccc2nc(Nc3nc(C)c(CCC(C)C)c(=O)[nH]3)nc(C)c2c1 [compound 11462]	14.6 µM	77.32	77.14	77.49	46.6 µM	3.19			
Cc1ccc2c(C)nc(Nc3nc(CSc4nnc(C)s4)cc(=O)[nH]3)nc2c1 [compound 11469]	10.1 µM	25.25	26.79	23.71	11.5 µM	1.13			
Cc1ccc2c(C)nc(Nc3nc(C(C)C)cc(=O)[nH]3)nc2c1 [compound 11472]	24.7 µM	59.32	51.74	66.90	19.4 µM				
COc1cccc(-c2cc(=O)[nH]c(Nc3nc(C)c4cccc(C)c4n3)n2)c1 [compound 11474]	3.57 µM	40.45	32.19	48.71	28.5 µM	7.98			
Cc1cc(C)c2nc(Nc3nc(CSc4nnc(C)s4)cc(=O)[nH]3)nc(C)c2c1 [compound 11476]	17.9 µM	33.91	36.71	31.11	13.3 µM	0.74			
CCCCc1c(C)nc(Nc2nc(C)c3cc(C)ccc3n2)[nH]c1=O [compound 11498]	5.39 µM	49.32	42.15	56.48	8.77 µM				
CCc1ccc2nc(Nc3nc(-c4cccc(OC)c4)cc(=O)[nH]3)nc(C)c2c1 [compound 11503]	6.71 µM	32.21	25.88	38.53	19 µM	2.83			
Cc1ccc2c(C)nc(Nc3nc(-c4ccccc4C)cc(=O)[nH]3)nc2c1 [compound 11511]		82.50	77.05	87.95			1.26 µM	0.45	0.57 µM
Cc1nc(Nc2nc(CSc3nc4ccccc4[nH]3)cc(=O)[nH]2)nc2ccccc12 [compound 11582]	2.43 µM	49.89	59.77	40.01	2.44 µM		49.3 µM	1.13	55.9 µM
